# Experimental data from ChEMBL document CHEMBL3774308, “KATching-Up on Small Molecule Modulators of Lysine Acetyltransferases” (J Med Chem, 2016).
# Tests used:
# CREB-binding protein = CREB-binding protein (Homo sapiens, UniProt Q92793); experiment: Inhibition of human CREBBP expressed in competent escherichia coli BL21(DE3)-R3-pRARE2 cells by isothermal titration calorimetry
# [1] = target: Histone acetyltransferase p300 (Homo sapiens, UniProt Q09472); experiment: Inhibition of human p300 expressed in competent escherichia coli BL21(DE3)-R3-pRARE2 cells by isothermal titration calorimetry
# Chain of Histone acetyltransferase p300 (Q09472 whole entry): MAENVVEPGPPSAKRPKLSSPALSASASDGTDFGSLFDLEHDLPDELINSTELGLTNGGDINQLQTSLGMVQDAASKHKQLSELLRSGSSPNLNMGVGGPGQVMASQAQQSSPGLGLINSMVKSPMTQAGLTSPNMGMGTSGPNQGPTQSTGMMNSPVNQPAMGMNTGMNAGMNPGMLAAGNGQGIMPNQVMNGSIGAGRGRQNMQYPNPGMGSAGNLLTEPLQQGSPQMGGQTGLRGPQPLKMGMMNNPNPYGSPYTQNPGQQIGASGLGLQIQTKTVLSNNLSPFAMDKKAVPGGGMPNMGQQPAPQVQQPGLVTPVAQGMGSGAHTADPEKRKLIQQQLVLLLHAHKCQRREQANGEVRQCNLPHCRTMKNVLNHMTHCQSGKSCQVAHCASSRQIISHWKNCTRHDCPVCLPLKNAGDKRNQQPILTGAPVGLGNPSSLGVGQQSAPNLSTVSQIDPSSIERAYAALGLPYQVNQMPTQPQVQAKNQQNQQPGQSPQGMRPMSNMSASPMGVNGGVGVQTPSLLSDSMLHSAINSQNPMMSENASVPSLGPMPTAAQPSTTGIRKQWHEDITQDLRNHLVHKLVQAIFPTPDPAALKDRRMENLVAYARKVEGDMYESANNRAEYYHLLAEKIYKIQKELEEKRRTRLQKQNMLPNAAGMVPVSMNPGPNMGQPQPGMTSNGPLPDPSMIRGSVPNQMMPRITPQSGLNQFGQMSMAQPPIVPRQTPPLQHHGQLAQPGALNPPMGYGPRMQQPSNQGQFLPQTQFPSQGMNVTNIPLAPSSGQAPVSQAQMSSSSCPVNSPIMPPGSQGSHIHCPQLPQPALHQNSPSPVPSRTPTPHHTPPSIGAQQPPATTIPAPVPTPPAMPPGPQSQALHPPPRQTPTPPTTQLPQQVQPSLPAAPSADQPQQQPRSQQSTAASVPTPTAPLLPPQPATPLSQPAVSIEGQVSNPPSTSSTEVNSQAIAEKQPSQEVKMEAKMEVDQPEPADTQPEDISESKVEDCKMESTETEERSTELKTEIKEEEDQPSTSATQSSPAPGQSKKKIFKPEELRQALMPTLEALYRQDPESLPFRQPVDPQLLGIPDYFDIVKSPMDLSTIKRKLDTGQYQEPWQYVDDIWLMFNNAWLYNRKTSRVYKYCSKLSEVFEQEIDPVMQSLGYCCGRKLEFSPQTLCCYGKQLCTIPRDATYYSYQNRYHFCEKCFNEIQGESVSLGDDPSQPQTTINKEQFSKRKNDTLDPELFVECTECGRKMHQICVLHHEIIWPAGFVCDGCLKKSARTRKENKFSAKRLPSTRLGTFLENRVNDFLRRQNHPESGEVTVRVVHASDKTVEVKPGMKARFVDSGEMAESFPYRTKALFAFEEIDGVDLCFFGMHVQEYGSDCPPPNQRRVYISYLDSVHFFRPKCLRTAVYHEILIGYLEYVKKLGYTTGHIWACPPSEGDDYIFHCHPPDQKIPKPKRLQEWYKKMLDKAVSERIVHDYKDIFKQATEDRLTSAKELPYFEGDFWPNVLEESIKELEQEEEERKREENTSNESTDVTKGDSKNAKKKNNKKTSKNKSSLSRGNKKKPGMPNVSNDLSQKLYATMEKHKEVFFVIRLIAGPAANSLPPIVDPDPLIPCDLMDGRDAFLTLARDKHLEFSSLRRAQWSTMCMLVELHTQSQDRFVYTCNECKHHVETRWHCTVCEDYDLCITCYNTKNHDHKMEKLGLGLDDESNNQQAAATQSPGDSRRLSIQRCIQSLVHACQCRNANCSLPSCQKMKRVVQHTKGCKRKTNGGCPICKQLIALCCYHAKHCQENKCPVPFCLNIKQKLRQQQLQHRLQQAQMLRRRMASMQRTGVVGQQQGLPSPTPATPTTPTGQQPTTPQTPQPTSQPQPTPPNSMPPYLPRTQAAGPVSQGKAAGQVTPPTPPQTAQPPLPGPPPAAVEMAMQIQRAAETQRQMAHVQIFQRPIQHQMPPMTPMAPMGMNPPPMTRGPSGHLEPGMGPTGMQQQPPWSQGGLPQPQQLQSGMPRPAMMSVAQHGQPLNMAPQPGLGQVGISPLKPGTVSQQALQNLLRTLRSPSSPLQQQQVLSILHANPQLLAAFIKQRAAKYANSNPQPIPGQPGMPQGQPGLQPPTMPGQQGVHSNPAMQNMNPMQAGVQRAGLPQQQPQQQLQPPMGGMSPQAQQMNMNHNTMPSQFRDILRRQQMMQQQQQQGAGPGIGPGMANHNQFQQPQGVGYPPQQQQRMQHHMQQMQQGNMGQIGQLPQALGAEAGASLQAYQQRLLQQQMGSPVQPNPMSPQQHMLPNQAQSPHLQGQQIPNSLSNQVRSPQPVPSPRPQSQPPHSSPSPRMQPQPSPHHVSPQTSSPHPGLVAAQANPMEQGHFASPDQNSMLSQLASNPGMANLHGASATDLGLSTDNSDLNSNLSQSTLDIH
# Chain of CREB-binding protein (Q92793 whole entry): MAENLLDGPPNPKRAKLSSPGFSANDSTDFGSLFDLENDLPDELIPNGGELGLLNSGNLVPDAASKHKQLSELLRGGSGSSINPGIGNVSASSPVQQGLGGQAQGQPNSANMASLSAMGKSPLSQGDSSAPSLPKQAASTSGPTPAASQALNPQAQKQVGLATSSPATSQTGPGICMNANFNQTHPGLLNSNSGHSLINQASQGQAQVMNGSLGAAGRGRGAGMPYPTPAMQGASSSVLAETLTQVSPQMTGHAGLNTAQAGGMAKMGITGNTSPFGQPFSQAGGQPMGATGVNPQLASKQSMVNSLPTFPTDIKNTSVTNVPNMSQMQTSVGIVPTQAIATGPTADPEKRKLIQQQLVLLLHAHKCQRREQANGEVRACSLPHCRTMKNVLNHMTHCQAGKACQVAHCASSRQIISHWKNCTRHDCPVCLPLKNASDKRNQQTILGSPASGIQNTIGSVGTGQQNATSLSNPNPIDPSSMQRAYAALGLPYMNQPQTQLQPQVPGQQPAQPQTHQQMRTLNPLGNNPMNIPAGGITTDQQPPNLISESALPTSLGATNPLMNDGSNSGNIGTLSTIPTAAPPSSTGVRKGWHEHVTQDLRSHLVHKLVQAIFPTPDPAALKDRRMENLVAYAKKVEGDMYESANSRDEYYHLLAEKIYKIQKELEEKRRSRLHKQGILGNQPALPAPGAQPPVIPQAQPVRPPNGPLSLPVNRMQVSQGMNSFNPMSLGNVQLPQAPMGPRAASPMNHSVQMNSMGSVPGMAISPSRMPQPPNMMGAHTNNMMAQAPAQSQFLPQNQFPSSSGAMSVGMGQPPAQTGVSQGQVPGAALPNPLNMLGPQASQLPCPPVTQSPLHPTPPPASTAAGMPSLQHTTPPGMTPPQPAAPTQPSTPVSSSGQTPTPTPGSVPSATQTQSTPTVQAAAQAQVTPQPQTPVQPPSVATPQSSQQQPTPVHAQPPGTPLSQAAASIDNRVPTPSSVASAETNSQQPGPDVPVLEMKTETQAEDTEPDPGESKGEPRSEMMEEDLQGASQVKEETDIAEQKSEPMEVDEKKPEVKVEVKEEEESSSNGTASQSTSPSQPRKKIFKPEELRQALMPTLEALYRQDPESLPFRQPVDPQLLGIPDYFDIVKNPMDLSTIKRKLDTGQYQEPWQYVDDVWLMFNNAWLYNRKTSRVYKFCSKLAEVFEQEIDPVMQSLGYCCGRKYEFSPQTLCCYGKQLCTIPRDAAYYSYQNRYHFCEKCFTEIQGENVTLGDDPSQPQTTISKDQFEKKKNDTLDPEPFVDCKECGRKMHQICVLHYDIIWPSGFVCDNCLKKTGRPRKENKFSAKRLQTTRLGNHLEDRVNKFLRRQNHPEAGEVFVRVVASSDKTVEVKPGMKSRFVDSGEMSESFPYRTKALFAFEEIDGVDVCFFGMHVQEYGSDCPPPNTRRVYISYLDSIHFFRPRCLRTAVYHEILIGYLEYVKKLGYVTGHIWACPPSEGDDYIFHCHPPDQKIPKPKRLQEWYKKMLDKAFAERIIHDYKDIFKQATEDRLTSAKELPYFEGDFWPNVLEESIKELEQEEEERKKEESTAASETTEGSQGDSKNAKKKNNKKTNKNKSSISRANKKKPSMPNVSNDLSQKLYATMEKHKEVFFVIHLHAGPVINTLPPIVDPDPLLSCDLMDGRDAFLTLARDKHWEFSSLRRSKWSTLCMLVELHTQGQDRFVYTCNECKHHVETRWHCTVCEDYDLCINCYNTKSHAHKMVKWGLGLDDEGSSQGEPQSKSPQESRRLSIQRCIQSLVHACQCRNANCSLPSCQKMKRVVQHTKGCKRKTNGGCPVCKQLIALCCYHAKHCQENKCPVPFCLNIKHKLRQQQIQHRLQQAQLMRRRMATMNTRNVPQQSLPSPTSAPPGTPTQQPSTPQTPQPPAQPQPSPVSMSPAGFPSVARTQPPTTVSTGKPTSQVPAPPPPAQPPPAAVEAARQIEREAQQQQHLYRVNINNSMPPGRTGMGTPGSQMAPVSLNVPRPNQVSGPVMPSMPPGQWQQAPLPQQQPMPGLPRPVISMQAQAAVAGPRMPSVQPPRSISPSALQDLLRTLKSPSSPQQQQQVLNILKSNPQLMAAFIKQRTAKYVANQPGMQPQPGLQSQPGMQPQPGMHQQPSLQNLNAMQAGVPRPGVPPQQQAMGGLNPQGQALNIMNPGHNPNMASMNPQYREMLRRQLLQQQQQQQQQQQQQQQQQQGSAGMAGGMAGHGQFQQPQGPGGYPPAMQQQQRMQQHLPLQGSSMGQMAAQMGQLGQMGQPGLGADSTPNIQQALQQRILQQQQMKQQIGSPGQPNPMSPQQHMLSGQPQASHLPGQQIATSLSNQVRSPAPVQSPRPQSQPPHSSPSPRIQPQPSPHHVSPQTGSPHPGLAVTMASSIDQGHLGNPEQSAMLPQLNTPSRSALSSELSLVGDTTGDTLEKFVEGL
compound,measurement,setting,value
CCC(=O)N1CCOc2c(cc(-c3ccc(OC)c(OC)c3)cc2OC[C@H]2CCCN(C)C2)C1,Kd,CREB-binding protein,151 nM
same,Kd,[1],167 nM
